The source of these data is patent US20190225650A1, “PEPTIDOMIMETIC MACROCYCLES AND USE THEREOF IN REGULATING HIF1ALPHA” (AILERON THERAPEUTICS, INC., priority 2013, published 2019).

Test [1] addresses T1, flag-tagged HIF1α (AA 786-826) / His6-tagged p300 (AA 323-423) complex (Homo sapiens, UniProt Q09472).
T1 construct: His6-tagged p300 (AA 323-423); made in house; host or cells: E. coli (pETDuet vector)
The experiment in a line: HIF1α p300 displacement assay (TR FRET, +CHAPS). The test is classed as binding. Conditions: read-out: IC50 (nM) (HIF1α_p300 Displacement + CHAPS). The essentials:
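In this TR-FRET displacement format, peptides compete HIF1α C-terminal transactivation domain off p300-CH. They were preincubated 1 h at room temperature with 300 nM complex in HEPES pH 7.4/NaCl buffer with 7.5 mM CHAPS and 1 mM DTT. Anti-His-D2 (4 nM) and anti-Flag-K (0.5 μM) followed for 2 h, and a one-site fit of the fluorescence ratio gave IC50.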

Test [2] deals with HRE-bla ME-180 cells. The experiment in a line: Reporter gene assay (HRE-bla ME-180 HIF reporter, GeneBLAzer). The test is classed as cell-based, human. The essentials: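 A FRET β-lactamase readout of HIF transcription was used. After compound treatment in 0.3% DMSO/media under normoxic conditions, 20 μl of 6× LiveBLAzer-FRET B/G (CCF4-AM) substrate was added. Plates sat 3 hr at room temperature in the dark and were read at 409 Ex/460Em and 409Ex/530Em on a Synergy 2. Inhibition was compared against DMSO vehicle controls, with chetomin as positive control.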

Bridge positions count the residues as written; N and C are the ends. Square brackets hold non-standard residues; d marks the D form. Peptide text beside a SMILES is read from it. R8 = C=CCCCCCC[C@@](C)(N)C(=O)O; S5 = C=CCCC[C@](C)(N)C(=O)O; Nle = CCCC[C@H](N)C(=O)O A value given as a limit tells only on which side of the number the result lay.

Consider `CCCC[C@H](NC(=O)[C@H](CC(C)C)NC(=O)[C@@H](NC(=O)[C@H](CCC(=O)O)NC(=O)[C@H](CCC(=O)O)NC(=O)[C@H](CC(=O)O)NC(=O)[C@@H](NC(=O)[C@H](Cc1ccccc1)NC(C)=O)[C@@H](C)CC)C(C)C)C(=O)N[C@@]1(C)CCCC=CCCC[C@@](C)(C(=O)N[C@@H](CCCC)C(=O)N[C@@H](C)C(=O)N[C@@H](CC(C)C)C(N)=O)NC(=O)[C@H]([C@@H](C)CC)NC(=O)[C@H](C(C)C)NC(=O)[C@H](Cc2ccccc2)NC1=O` [SP-219] (Ac-FIDEEVL[Nle][S5]FVI[S5][Nle]AL-NH2; staple 9-13), for which the IC50 (usually the concentration at which inhibition is half-maximal) in test [1] is 400 to 700 nM. In test [2] (18 h, at top conc, 24 hrs normoxia), the “18 h Avg % max inhibition at top conc (HIF Rptr-24 hrs normoxia) (μM)” value is “++ (≤10 but <25: ++)”. Further, the EC50 (as a rule, the midpoint of the concentration-response curve) in test [2] (24 hour normoxia) is > 30 µM.
In the case of `CCCC[C@H](NC(=O)[C@H](CCC(=O)O)NC(=O)[C@@H](NC(=O)[C@@H](NC(=O)[C@H](CC(N)=O)NC(=O)[C@]1(C)CCCC=CCCC[C@](C)(NC(=O)[C@H](C)NC(=O)[C@H](CC(=O)O)NC(=O)[C@@H](NC(=O)[C@H](Cc2ccccc2)NC(C)=O)[C@@H](C)CC)C(=O)N[C@@H](C(C)C)C(=O)N[C@@H](CC(C)C)C(=O)N[C@@H](CCCC)C(=O)N1)C(C)C)[C@@H](C)CC)C(=O)N[C@@H](C)C(=O)N[C@@H](CC(C)C)C(N)=O` [SP-150] (Ac-FIDA[S5]VL[Nle][S5]NVIE[Nle]AL-NH2; staple 5-9), the IC50 in test [1] lay within 200 to 400 nM.
With `CCCC[C@H](NC(=O)[C@H](CCC(=O)O)NC(=O)[C@]1(C)CCCC=CCCCCCC[C@@](C)(NC(=O)[C@H](CCC(=O)O)NC(=O)[C@H](CC(=O)O)NC(=O)[C@@H](NC(=O)[C@H](Cc2ccccc2)NC(C)=O)[C@@H](C)CC)C(=O)N[C@@H](C(C)C)C(=O)N[C@@H](CC(C)C)C(=O)N[C@@H](CCSC)C(=O)N[C@@H](CO)C(=O)N[C@@H](CC(C)C)C(=O)N[C@@H](C(C)C)C(=O)N1)C(=O)NCC(N)=O` [SP-186] (Ac-FIDE[R8]VLMSLV[S5]E[Nle]G-NH2; staple 5-12), in test [1], the IC50 is > 700 nM.
Turning to `CC[C@H](C)[C@H](NC(=O)[C@H](Cc1ccccc1)NC(C)=O)C(=O)N[C@@H](CC(=O)O)C(=O)N[C@@H](CCC(=O)O)C(=O)N[C@]1(C)CCCCCCC=CCCC[C@@](C)(C(=O)N[C@@H](CCC(=O)O)C(=O)N[C@@H](CCSC)C(=O)NCC(=O)N[C@@H](CC(C)C)C(=O)N[C@@H](CC(=O)O)C(=O)N[C@@H](CCCNC(=N)N)C(N)=O)NC(=O)[C@H](C(C)C)NC(=O)[C@H](CC(C)C)NC(=O)[C@H](CO)NC(=O)[C@H](CCSC)NC(=O)[C@H](CC(C)C)NC(=O)[C@H](C(C)C)NC1=O` [SP-189] (Ac-FIDE[R8]VLMSLV[S5]EMGLDR-NH2; staple 5-12), the IC50 in test [1] is > 700 nM.
Take `CC[C@H](C)[C@H](NC(=O)[C@H](Cc1ccccc1)NC(C)=O)C(=O)N[C@@H](CC(=O)O)C(=O)N[C@@H](CCC(=O)O)C(=O)N[C@]1(C)CCCCCCC=CCCC[C@@](C)(C(=O)N[C@@H](CCC(=O)O)C(=O)N[C@@H](CCSC)C(=O)NCC(=O)N[C@@H](CC(C)C)C(N)=O)NC(=O)[C@H](C(C)C)NC(=O)[C@H](CC(C)C)NC(=O)[C@H](CO)NC(=O)[C@H](CCSC)NC(=O)[C@H](CC(C)C)NC(=O)[C@H](C(C)C)NC1=O` [SP-187] (Ac-FIDE[R8]VLMSLV[S5]EMGL-NH2; staple 5-12): in test [1], the IC50 is > 700 nM.
Same read-out and setting: the value for `CCCC[C@H](NC(=O)[C@H](CCC(=O)O)NC(=O)[C@@H](NC(=O)[C@@H](NC(=O)[C@H](CC(C)C)NC(=O)[C@H](CO)NC(=O)[C@H](CCCC)NC(=O)[C@H](CC(C)C)NC(=O)[C@@H](NC(=O)[C@H](CCC(=O)O)NC(=O)[C@H](CCC(=O)O)NC(=O)[C@H](CC(=O)O)NC(=O)[C@@H](NC(=O)[C@H](CC(N)=O)NC(=O)[C@@H](NC(=O)[C@H](CCC(N)=O)NC(=O)[C@H](CC(=O)O)NC(=O)[C@H](CC(C)C)NC(=O)[C@H](C)NC(=O)[C@H](CCCNC(=N)N)NC(=O)[C@H](CC(C)C)NC(=O)[C@H](CC(C)C)NC(=O)[C@H](CCC(=O)O)NC(=O)[C@H](CCC(=O)O)NC(=O)CNC(=O)[C@H](CCC(N)=O)NC(=O)[C@H](CC(C)C)NC(=O)[C@H](CC(C)C)NC(C)=O)C(C)C)[C@@H](C)CC)C(C)C)C(C)C)[C@@H](C)CC)C(N)=O` [SP-333] (Ac-LLQGEELLRALDQVNIDEEVL[Nle]SLVIE[Nle]-NH2) was 400 to 700 nM; that for `CSCC[C@H](NC(=O)[C@H](CO)NC(=O)[C@]1(C)CCCC=CCCCCCC[C@@](C)(NC(=O)[C@H](CCC(=O)O)NC(=O)[C@@H](NC(=O)[C@H](CC(C)C)NC(C)=O)[C@@H](C)O)C(=O)N[C@@H](C(C)C)C(=O)N[C@@H](CC(C)C)C(=O)N[C@@H](CCSC)C(=O)N[C@@H](CO)C(=O)N[C@@H](CC(C)C)C(=O)N[C@@H](C(C)C)C(=O)N1)C(=O)N[C@@H](C)C(N)=O` [SP-180] (Ac-LTE[R8]VLMSLV[S5]SMA-NH2; staple 4-11) was > 700 nM.
As to `CCCC[C@H](NC(=O)[C@H](CC(C)C)NC(=O)[C@@H](NC(=O)[C@H](C)NC(=O)[C@H](CCC(=O)O)NC(=O)[C@H](C)NC(=O)[C@@H](NC(=O)[C@H](Cc1ccccc1)NC(C)=O)[C@@H](C)CC)C(C)C)C(=O)N[C@@]1(C)CCCC=CCCC[C@@](C)(C(=O)N[C@@H](CCCC)C(=O)N[C@@H](C)C(=O)N[C@@H](CC(C)C)C(=O)N[C@@H](C)C(=O)N[C@@H](C)C(=O)N[C@H](C(N)=O)[C@@H](C)CC)NC(=O)[C@H]([C@@H](C)CC)NC(=O)[C@H](C(C)C)NC(=O)[C@H](CC(C)C)NC1=O` [SP-223] (Ac-FIAEAVL[Nle][S5]LVI[S5][Nle]ALAAI-NH2; staple 9-13), in test [1], the IC50 was > 700 nM.
Regarding `CCCC[C@@H]1NC(=O)[C@](C)(NC(=O)[C@@H](NC(=O)[C@H](CCC(=O)O)NC(=O)[C@H](CCC(=O)O)NC(=O)[C@H](CC(=O)O)NC(=O)[C@@H](NC(=O)[C@H](CC(N)=O)NC(=O)[C@@H](NC(=O)[C@H](CCC(N)=O)NC(=O)[C@H](CC(=O)O)NC(=O)[C@H](CC(C)C)NC(=O)[C@H](C)NC(=O)[C@H](CCCNC(=N)N)NC(=O)[C@]2(C)CCCC=CCCC[C@](C)(NC(=O)[C@H](CCC(N)=O)NC(=O)[C@H](CC(C)C)NC(=O)[C@H](CC(C)C)NC(C)=O)C(=O)N[C@@H](CCC(=O)O)C(=O)N[C@@H](CCC(=O)O)C(=O)N[C@@H](CC(C)C)C(=O)N2)C(C)C)[C@@H](C)CC)C(C)C)CCCCCCC=CCCC[C@@](C)(C(=O)NCC(N)=O)NC(=O)[C@H](CCC(=O)O)NC(=O)[C@H]([C@@H](C)CC)NC(=O)[C@H](C(C)C)NC(=O)[C@H](CC(C)C)NC(=O)[C@H](CO)NC1=O` [SP-314] (Ac-LLQ[S5]EEL[S5]RALDQVNIDEEV[R8][Nle]SLVIE[S5]G-NH2; staple 4-8, 21-28), the IC50 in test [1] was > 700 nM.
For `CC[C@H](C)[C@H](NC(=O)[C@H](Cc1ccccc1)NC(C)=O)C(=O)N[C@@H](CC(=O)O)C(=O)N[C@@H](CCC(=O)O)C(=O)N[C@]1(C)CCCCCCC=CCCC[C@@](C)(C(=O)N[C@@H](CCC(=O)O)C(=O)N[C@@H](CCSC)C(=O)NCC(=O)N[C@@H](CC(C)C)C(=O)N[C@@H](CC(=O)O)C(N)=O)NC(=O)[C@H](C(C)C)NC(=O)[C@H](CC(C)C)NC(=O)[C@H](CO)NC(=O)[C@H](CCSC)NC(=O)[C@H](CC(C)C)NC(=O)[C@H](C(C)C)NC1=O` [SP-188] (Ac-FIDE[R8]VLMSLV[S5]EMGLD-NH2; staple 5-12), in test [1], the IC50 was > 700 nM.
In the case of `CC[C@H](C)[C@H](NC(=O)[C@H](Cc1ccccc1)NC(C)=O)C(=O)N[C@@H](CC(=O)O)C(=O)N[C@@H](CCC(=O)O)C(=O)N[C@@]1(C)CCCC=CCCC[C@@](C)(C(=O)N[C@@H](CC(C)C)C(=O)N[C@H](C(=O)N[C@H](C(=O)N[C@@H](CCC(=O)O)C(=O)N[C@@H](CCSC)C(=O)N[C@@H](C)C(N)=O)[C@@H](C)CC)C(C)C)NC(=O)[C@H](CCSC)NC(=O)[C@H](CC(C)C)NC(=O)[C@H](C(C)C)NC1=O` [SP-115] (Ac-FIDE[S5]VLM[S5]LVIEMA-NH2; staple 5-9), the 50% inhibitory concentration (IC50) in test [1] is > 700 nM.
In the case of `CC[C@H](C)[C@H](NC(=O)[C@H](Cc1ccccc1)NC(C)=O)C(=O)N[C@@H](CC(=O)O)C(=O)N[C@@H](CCC(=O)O)C(=O)N[C@]1(C)CCCCCCC=CCCC[C@@](C)(C(=O)N[C@@H](CCC(=O)O)C(=O)N[C@@H](CCSC)C(=O)N[C@@H](C)C(=O)N[C@@H](C)C(N)=O)NC(=O)[C@H](C(C)C)NC(=O)[C@H](CC(C)C)NC(=O)[C@H](CO)NC(=O)[C@H](CCSC)NC(=O)[C@H](CC(C)C)NC(=O)[C@H](C(C)C)NC1=O` [SP-178] (Ac-FIDE[R8]VLMSLV[S5]EMAA-NH2; staple 5-12), the IC50 in test [1] was > 700 nM.
Consider `CCCC[C@H](NC(=O)[C@H](CCC(=O)O)NC(=O)[C@@H](NC(=O)[C@@H](NC(=O)[C@H](CC(C)C)NC(=O)[C@]1(C)CCCC=CCCC[C@](C)(NC(=O)[C@H](CCC(=O)O)NC(=O)[C@H](CC(=O)O)NC(=O)[C@@H](NC(=O)[C@H](Cc2ccccc2)NC(=O)[C@H](CCCCN)NC(=O)[C@H](CCCCN)NC(C)=O)[C@@H](C)CC)C(=O)N[C@@H](C(C)C)C(=O)N[C@@H](CC(C)C)C(=O)N[C@@H](CCCC)C(=O)N1)C(C)C)[C@@H](C)CC)C(=O)N[C@@H](C)C(=O)N[C@@H](CC(C)C)C(=O)N[C@@H](CCCCN)C(=O)N[C@@H](CCCCN)C(N)=O` [SP-137] (Ac-KKFIDE[S5]VL[Nle][S5]LVIE[Nle]ALKK-NH2; staple 7-11), for which, in test [1], the concentration for half-maximal inhibition (IC50) was > 700 nM.
